Results as given in publication PMC9454848, “BMS-986158, a Small Molecule Inhibitor of the Bromodomain and Extraterminal Domain Proteins, in Patients with Selected Advanced Solid Tumors: Results from a Phase 1/2a Trial” (Cancers, 2022).
“Also recorded” adds a separate entry of the source. Read-outs that look alike come from different tables or passages of the source.

Experiments:
BET-regulated genes = assay: Transcriptional changes in matched pre- and on-treatment samples; type: in vivo, human; conditions: of >18,000 genes measured; Benjamini–Hochberg–adjusted p < 0.05; 41 patients
Description: Summary changes from baseline in the expression of BET-regulated genes were assessed in tumor tissues and blood collected at baseline and multiple on-treatment time points after BMS-986158 administration following the 3 dosing schedules. The study also assessed summary percent changes from baseline in expression of BET-regulated genes in peripheral blood and tumors (such as HEXIM1 and C-MYC). Tissue and peripheral blood samples (at baseline and on treatment) were collected for genomic, transcriptomic, and epigenetic analyses (by DNA or mRNA) to assess pharmacodynamic changes in BET-regulated genes. These samples were analyzed using whole-exome sequencing, real-time quantitative polymerase chain reaction, and RNA-sequencing methods.
All treated patients with available biomarker measurements at baseline and ≥1 time point were included in the biomarker analyses. Blood and tumor tissue samples were collected at baseline, during treatment, and at end of treatment for biomarker analysis. Markers of selected BET-regulated genes (e.g., HEXIM1) were analyzed with summary statistics for percent changes in expression from available matched pre- and on-treatment samples over time relative to baseline. Statistically significant changes in gene expression were determined using the Benjamini–Hochberg procedure to calculate an adjusted p value with an α level of 0.05.

[1] = Plasma pharmacokinetics after single dose (C1D1), LC-MS/MS; type: in vivo, human; conditions: for half-life / Vd/F / AUC(0-t) / Tmax / Cmax: human, plasma, oral
Description: At C1D1 in every dosing schedule cohort, a single dose was administered followed by 168 h (i.e., 7 days) of intensive PK sampling. Following cycle 1, the multiple-dose treatment schedules (described above) began in cycle 2. PK parameters were derived following single dose combined across all schedules and multiple doses at cycle 2 for each schedule. […] PK assessments were evaluated for BMS-986158 and its metabolite using plasma samples at regular intervals. Both the parent and metabolite samples were simultaneously analyzed using a validated liquid chromatography and tandem mass spectrometry assay.
(§1) All treated patients who received ≥1 dose of BMS-986158 were evaluated in the safety population. […] All treated patients with available and sufficient serum or plasma samples for the corresponding analytes were included in the PK analyses. […] ECG parameters were evaluated in a categorical analysis, and linear mixed-effects regression modeling was used to describe the quantitative relationship between ΔQTcF and time-matched serum concentrations of BMS-986158 or its metabolite at a single dose.

[2] = tested on: patients with advanced solid tumors; assay: ECG ΔQTcF exposure-response at single dose; type: in vivo
Description: Triplicate ECG measures were used to assess changes from baseline in the QT interval adjusted for heart rate using Fridericia’s formula (ΔQTcF) following a single dose of BMS-986158 at C1D1. ΔQTcF was evaluated in the context of exposure response for BMS-986158 and its metabolite of interest.
as §1

Cc1nnn(C)c1-c1cnc2c3ccc(C(C)(C)O)cc3n([C@H](c3ccccc3)C3CCOCC3)c2c1 [BMS-986158]
Genes with significant changes in expression (BET-regulated genes): 4500
Dose proportionality of plasma concentrations ([1]; 0.75–4.5 mg): dose proportional
half-life ([1]; 0.75 mg, cohort Schedule A, 0.75 mg, n = 4, read-out: Effective T1/2, mean (SD) (converted)): 33.7 h
Vd/F ([1]; 0.75 mg, cohort Schedule A, 0.75 mg, n = 4, read-out: Vz/F, GM (%CV)): 14.7 L
AUC(0-t) ([1]; 0.75 mg, cohort Schedule A, 0.75 mg, n = 5, read-out: AUC(0–24), GM (%CV)): 1030 ng·h/mL
AUC(0-t) ([1]; 0.75 mg, cohort Schedule A, 0.75 mg, n = 5, read-out: AUC(0–T), GM (%CV)): 2150 ng·h/mL
Tmax ([1]; 0.75 mg, cohort Schedule A, 0.75 mg, n = 5, read-out: Tmax, median): 4 h
Cmax ([1]; 0.75 mg, cohort Schedule A, n = 5): 68.8 ng/mL
AUC(0-t) ([1]; 1.25 mg, cohort Schedule A, 1.25 mg, n = 3, read-out: AUC(0–24), GM (%CV)): 2310 ng·h/mL
AUC(0-t) ([1]; 1.25 mg, cohort Schedule A, 1.25 mg, n = 3, read-out: AUC(0–T), GM (%CV)): 6370 ng·h/mL
half-life ([1]; 1.25 mg, cohort Schedule A, 1.25 mg, n = 3, read-out: Effective T1/2, mean (SD) (converted)): 48.7 h
Tmax ([1]; 1.25 mg, cohort Schedule A, 1.25 mg, n = 3, read-out: Tmax, median): 1 h
Vd/F ([1]; 1.25 mg, cohort Schedule A, 1.25 mg, n = 3, read-out: Vz/F, GM (%CV)): 12.5 L
Cmax ([1]; 1.25 mg, cohort Schedule A, n = 3): 175 ng/mL
half-life ([1]; 2 mg, cohort Schedule A, 2.0 mg, n = 4, read-out: Effective T1/2, mean (SD) (converted)): 41.4 h
Vd/F ([1]; 2 mg, cohort Schedule A, 2.0 mg, n = 4, read-out: Vz/F, GM (%CV)): 14.6 L
AUC(0-t) ([1]; 2 mg, cohort Schedule A, 2.0 mg, n = 9, read-out: AUC(0–24), GM (%CV)): 3610 ng·h/mL
AUC(0-t) ([1]; 2 mg, cohort Schedule A, 2.0 mg, n = 9, read-out: AUC(0–T), GM (%CV)): 8560 ng·h/mL
Tmax ([1]; 2 mg, cohort Schedule A, 2.0 mg, n = 9, read-out: Tmax, median): 2 h
Cmax ([1]; 2 mg, cohort Schedule A, n = 9): 260 ng/mL
AUC(0-t) ([1]; 2 mg, cohort Schedule B, 2.0 mg, n = 1, read-out: AUC(0–24), GM (%CV)): 2360 ng·h/mL
AUC(0-t) ([1]; 2 mg, cohort Schedule B, 2.0 mg, n = 1, read-out: AUC(0–T), GM (%CV)): 5200 ng·h/mL
half-life ([1]; 2 mg, cohort Schedule B, 2.0 mg, n = 1, read-out: Effective T1/2, mean (SD) (converted)): 44.2 h
Tmax ([1]; 2 mg, cohort Schedule B, 2.0 mg, n = 1, read-out: Tmax, median): 1 h
Vd/F ([1]; 2 mg, cohort Schedule B, 2.0 mg, n = 1, read-out: Vz/F, GM (%CV)): 23.2 L
Cmax ([1]; 2 mg, cohort Schedule B, n = 1): 207 ng/mL
AUC(0-t) ([1]; 2 mg, cohort Schedule C, 2.0 mg, n = 6, read-out: AUC(0–24), GM (%CV)): 3660 ng·h/mL
AUC(0-t) ([1]; 2 mg, cohort Schedule C, 2.0 mg, n = 6, read-out: AUC(0–T), GM (%CV)): 10900 ng·h/mL
half-life ([1]; 2 mg, cohort Schedule C, 2.0 mg, n = 6, read-out: Effective T1/2, mean (SD) (converted)): 64.6 h
Tmax ([1]; 2 mg, cohort Schedule C, 2.0 mg, n = 6, read-out: Tmax, median): 1 h
Vd/F ([1]; 2 mg, cohort Schedule C, 2.0 mg, n = 6, read-out: Vz/F, GM (%CV)): 13.9 L
Cmax ([1]; 2 mg, cohort Schedule C, n = 6): 295 ng/mL
half-life ([1]; 3 mg, cohort Schedule A, 3.0 mg, n = 7, read-out: Effective T1/2, mean (SD) (converted)): 33.3 h
Vd/F ([1]; 3 mg, cohort Schedule A, 3.0 mg, n = 7, read-out: Vz/F, GM (%CV)): 12.8 L
AUC(0-t) ([1]; 3 mg, cohort Schedule A, 3.0 mg, n = 10, read-out: AUC(0–24), GM (%CV)): 4940 ng·h/mL
AUC(0-t) ([1]; 3 mg, cohort Schedule A, 3.0 mg, n = 10, read-out: AUC(0–T), GM (%CV)): 10500 ng·h/mL
Tmax ([1]; 3 mg, cohort Schedule A, 3.0 mg, n = 10, read-out: Tmax, median): 2 h
Cmax ([1]; 3 mg, cohort Schedule A, n = 10): 328 ng/mL
half-life ([1]; 3 mg, cohort Schedule B, 3.0 mg, n = 1, read-out: Effective T1/2, mean (SD) (converted)): 54 h
Vd/F ([1]; 3 mg, cohort Schedule B, 3.0 mg, n = 1, read-out: Vz/F, GM (%CV)): 15.3 L
AUC(0-t) ([1]; 3 mg, cohort Schedule B, 3.0 mg, n = 4, read-out: AUC(0–24), GM (%CV)): 6920 ng·h/mL
AUC(0-t) ([1]; 3 mg, cohort Schedule B, 3.0 mg, n = 4, read-out: AUC(0–T), GM (%CV)): 28900 ng·h/mL
Tmax ([1]; 3 mg, cohort Schedule B, 3.0 mg, n = 4, read-out: Tmax, median): 1.03 h
Cmax ([1]; 3 mg, cohort Schedule B, n = 4): 481 ng/mL
half-life ([1]; 3 mg, cohort Schedule C, 3.0 mg, n = 10, read-out: Effective T1/2, mean (SD) (converted)): 48.2 h
Vd/F ([1]; 3 mg, cohort Schedule C, 3.0 mg, n = 10, read-out: Vz/F, GM (%CV)): 15.6 L
AUC(0-t) ([1]; 3 mg, cohort Schedule C, 3.0 mg, n = 11, read-out: AUC(0–24), GM (%CV)): 4470 ng·h/mL
AUC(0-t) ([1]; 3 mg, cohort Schedule C, 3.0 mg, n = 11, read-out: AUC(0–T), GM (%CV)): 11500 ng·h/mL
Tmax ([1]; 3 mg, cohort Schedule C, 3.0 mg, n = 11, read-out: Tmax, median): 1 h
Cmax ([1]; 3 mg, cohort Schedule C, n = 11): 370 ng/mL
half-life ([1]; 4.5 mg, cohort Schedule A, 4.5 mg, n = 9, read-out: Effective T1/2, mean (SD) (converted)): 48.3 h
Vd/F ([1]; 4.5 mg, cohort Schedule A, 4.5 mg, n = 9, read-out: Vz/F, GM (%CV)): 15.7 L
AUC(0-t) ([1]; 4.5 mg, cohort Schedule A, 4.5 mg, n = 10, read-out: AUC(0–24), GM (%CV)): 6790 ng·h/mL
AUC(0-t) ([1]; 4.5 mg, cohort Schedule A, 4.5 mg, n = 10, read-out: AUC(0–T), GM (%CV)): 19100 ng·h/mL
Tmax ([1]; 4.5 mg, cohort Schedule A, 4.5 mg, n = 10, read-out: Tmax, median): 2.04 h
Cmax ([1]; 4.5 mg, cohort Schedule A, n = 10): 478 ng/mL
half-life ([1]; 4.5 mg, cohort Schedule C, 4.5 mg, n = 5, read-out: Effective T1/2, mean (SD) (converted)): 35.7 h
Vd/F ([1]; 4.5 mg, cohort Schedule C, 4.5 mg, n = 5, read-out: Vz/F, GM (%CV)): 11.6 L
AUC(0-t) ([1]; 4.5 mg, cohort Schedule C, 4.5 mg, n = 7, read-out: AUC(0–24), GM (%CV)): 7420 ng·h/mL
AUC(0-t) ([1]; 4.5 mg, cohort Schedule C, 4.5 mg, n = 7, read-out: AUC(0–T), GM (%CV)): 17200 ng·h/mL
Tmax ([1]; 4.5 mg, cohort Schedule C, 4.5 mg, n = 7, read-out: Tmax, median): 2.02 h
Cmax ([1]; 4.5 mg, cohort Schedule C, n = 7): 567 ng/mL
Tmax ([1]; 0.75–4.5 mg, read-out: Time to peak plasma concentration (median Tmax)): 1 to 4 h
half-life ([1]; read-out: Mean T1/2, range across doses): 34 to 54 h
Effect on ΔQTcF ([2]; single dose of BMS-986158): neither BMS-986158 nor its metabolite had a statistically significant effect; also recorded: not found to cause significant QTc prolongation
Predicted increase in ΔQTcF at highest observed Cmax ([2]; single dose, linear mixed-effects model): < 5 ms
